In patent publication US20240150293A1, “SPIROCYCLOHEXANE DERIVATIVES, PHARMACEUTICAL COMPOSITIONS CONTAINING THEM AND THEIR USES AS ANTI-APOPTOTIC INHIBITORS” (LES LABORATOIRES SERVIER, priority 2021, published 2024) one finds IC50 and Ki data, which are given here for 18 compounds.

In assay [1] the test system is H929 multiple myeloma tumor line. Nature of the assay: In vitro cytotoxicity, MTT assay (Example B, Method A). The settings on record: H929 cells, 48 hours exposure, read-out: C50. It is filed as cell-based. On the procedure:
The cytotoxicity studies were carried out on the H929 multiple myeloma tumor line.
The cells are distributed onto microplates and exposed to the test compounds for 48 hours. The cell viability is then quantified by a colorimetric assay, the Microculture Tetrazolium Assay (Carmichael et al, Cancer Res. 1987, 47, 939-942).
The results are expressed in C50 which means concentration corresponding to […] of effect/inhibition.
For orientation: Tetrazolium dyes change colour on reduction, which living cells bring about.

The target of assay [2] is Cy5-labelled Mcl1 (amino acids 171-321) C286S protein (UniProtKB Q07820) (Homo sapiens (Human), UniProt Q07820, C286S). Nature of the assay: Inhibition of Mcl-1 by the fluorescence quenching assay (Example A, Method B). Type of assay: binding. A digest of the protocol:
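Eleven-point compound series incubated 2 h at room temperature with 1 nM Cy5-tagged protein and quencher-labelled PUMA peptide at 10, 20 or 400 nM in HEPES/NaCl/Tween 20, pH 7.4, 5% DMSO. IC50 for 50% fluorescence increase by 4-parameter fit, then Ki derived (complete cKi or estimated eKi).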

SMILES strings stand for the structures. Where two headings read alike, the source gives them in different places.

Sequence of Cy5-labelled Mcl1 (amino acids 171-321) C286S protein (Q07820 171-321 C286S): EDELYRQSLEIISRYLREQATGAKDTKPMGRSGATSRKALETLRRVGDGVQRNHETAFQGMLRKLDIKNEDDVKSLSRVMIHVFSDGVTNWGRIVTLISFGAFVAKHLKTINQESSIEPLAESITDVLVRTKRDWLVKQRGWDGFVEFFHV

Regarding `CC1CCCc2nccc(NC[C@H](C)C[C@H]3Cc4ccccc4[C@]34CC[C@@](Nc3cccc(Cl)c3)(C(=O)O)CC4)c21` (stereo partly drawn) [Example 655, (1r,2′S,4S)-4-(3-chloroanilino)-2′-{(2R)-2-methyl-3-[(5-methyl-5,6,7,8-tetrahydroquinolin-4-yl)amino]propyl}-2′,3′-dihydrospiro[cyclohexane-1,1′-indene]-4-carboxylic acid], the IC50 in assay [1] (Homo sapiens, NCI-H929, 48 h) amounted to 8420 nM. Moreover, the inhibition constant (Ki) (usually the equilibrium dissociation constant of an inhibitor or competing ligand from its target) in assay [2] turned out to be 50.9 nM.
Taken in the same sequence, the figures for `CC[C@H]1CCCc2nccc(OC[C@H](C)C[C@H]3Cc4ccccc4[C@]34CC[C@@](Nc3cccc(Cl)c3)(C(=O)O)CC4)c21` [Example 656, (1r,2′S,4S)-4-(3-chloroanilino)-2′-[(2R)-3-{[(5S)-5-ethyl-5,6,7,8-tetrahydroquinolin-4-yl]oxy}-2-methylpropyl]-2′,3′-dihydrospiro[cyclohexane-1,1′-indene]-4-carboxylic acid] were 2910 nM and 62.9 nM.
As for `CC[C@@H]1CCCc2nccc(OC[C@H](C)C[C@H]3Cc4ccccc4[C@]34CC[C@@](Nc3cccc(Cl)c3)(C(=O)O)CC4)c21` [Example 657, (1r,2′S,4S)-4-(3-chloroanilino)-2′-[(2R)-3-{[(5R)-5-ethyl-5,6,7,8-tetrahydroquinolin-4-yl]oxy}-2-methylpropyl]-2′,3′-dihydrospiro[cyclohexane-1,1′-indene]-4-carboxylic acid], the IC50 in assay [1] (Homo sapiens, NCI-H929, 48 h) is 139 nM. Moreover, in assay [2], the Ki worked out at 2.94 nM.
Taken in the same sequence, the figures for `C[C@@H](COc1ccnc2c1[C@H](C)CC[C@H]2C)C[C@H]1Cc2ccccc2[C@]12CC[C@@](Nc1cccc(Cl)c1)(C(=O)O)CC2` [Example 660, (1r,2′S,4S)-4-(3-chloroanilino)-2′-[(2R)-3-{[(5R,8R)-5,8-dimethyl-5,6,7,8-tetrahydroquinolin-4-yl]oxy}-2-methylpropyl]-2′,3′-dihydrospiro[cyclohexane-1,1′-indene]-4-carboxylic acid] were 62 nM and 1.39 nM.
On the same counts, the results for `C[C@@H](COc1ccnc2c1[C@@H](C)CC[C@@H]2C)C[C@H]1Cc2ccccc2[C@]12CC[C@@](Nc1cccc(Cl)c1)(C(=O)O)CC2` [Example 661, (1r,2′S,4S)-4-(3-chloroanilino)-2′-[(2R)-3-{[(5S,8S)-5,8-dimethyl-5,6,7,8-tetrahydroquinolin-4-yl]oxy}-2-methylpropyl]-2′,3′-dihydrospiro[cyclohexane-1,1′-indene]-4-carboxylic acid] are 4970 nM and 80.7 nM.
On the same counts, the results for `C[C@H]1Cc2nccc(OC[C@H](C)C[C@H]3Cc4ccccc4[C@]34CC[C@@](Nc3cccc(Cl)c3)(C(=O)O)CC4)c2[C@@H](C)C1` [Example 664, (1r,2′S,4S)-4-(3-chloroanilino)-2′-[(2R)-3-{[(5S,7R)-5,7-dimethyl-5,6,7,8-tetrahydroquinolin-4-yl]oxy}-2-methylpropyl]-2′,3′-dihydrospiro[cyclohexane-1,1′-indene]-4-carboxylic acid] are 3030 nM and 52.5 nM.
For `C[C@@H]1Cc2nccc(OC[C@H](C)C[C@H]3Cc4ccccc4[C@]34CC[C@@](Nc3cccc(Cl)c3)(C(=O)O)CC4)c2[C@H](C)C1` [Example 665, (1r,2′S,4S)-4-(3-chloroanilino)-2′-[(2R)-3-{[(5R,7S)-5,7-dimethyl-5,6,7,8-tetrahydroquinolin-4-yl]oxy}-2-methylpropyl]-2′,3′-dihydrospiro[cyclohexane-1,1′-indene]-4-carboxylic acid], in assay [1] (Homo sapiens, NCI-H929, 48 h), the IC50 worked out at 276 nM. Further, the Ki in assay [2] was found to be 3.01 nM.
For `C[C@@H]1Cc2nccc(OC[C@H](C)C[C@H]3Cc4ccccc4[C@]34CC[C@@](Nc3cccc(Cl)c3)(C(=O)O)CC4)c2[C@@H](C)C1` [Example 666, (1r,2′S,4S)-4-(3-chloroanilino)-2′-[(2R)-3-{[(5S,7S)-5,7-dimethyl-5,6,7,8-tetrahydroquinolin-4-yl]oxy}-2-methylpropyl]-2′,3′-dihydrospiro[cyclohexane-1,1′-indene]-4-carboxylic acid], the IC50 in assay [1] (Homo sapiens, NCI-H929, 48 h) is 1070 nM. The Ki in assay [2] worked out at 28.7 nM.
On the same counts, the results for `C[C@H]1Cc2nccc(OC[C@H](C)C[C@H]3Cc4ccccc4[C@]34CC[C@@](Nc3cccc(Cl)c3)(C(=O)O)CC4)c2[C@H](C)C1` [Example 667, (1r,2′S,4S)-4-(3-chloroanilino)-2′-[(2R)-3-{[(5R,7R)-5,7-dimethyl-5,6,7,8-tetrahydroquinolin-4-yl]oxy}-2-methylpropyl]-2′,3′-dihydrospiro[cyclohexane-1,1′-indene]-4-carboxylic acid] are 574 nM and 4.05 nM.
On the same counts, the results for `C[C@@H](COc1ccnc2c1CCC[C@H]2O)C[C@H]1Cc2ccccc2[C@]12CC[C@@](Nc1cccc(Cl)c1)(C(=O)O)CC2` [Example 668, (1r,2′S,4S)-4-(3-chloroanilino)-2′-[(2R)-3-{[(8R)-8-hydroxy-5,6,7,8-tetrahydroquinolin-4-yl]oxy}-2-methylpropyl]-2′,3′-dihydrospiro[cyclohexane-1,1′-indene]-4-carboxylic acid] are 355 nM and 2.74 nM.
Consider `CO[C@H]1CCCc2nccc(OC[C@H](C)C[C@H]3Cc4ccccc4[C@]34CC[C@@](Nc3cccc(Cl)c3)(C(=O)O)CC4)c21` [Example 671, (1r,2′S,4S)-4-(3-chloroanilino)-2′-[(2R)-3-{[(5S)-5-methoxy-5,6,7,8-tetrahydroquinolin-4-yl]oxy}-2-methylpropyl]-2′,3′-dihydrospiro[cyclohexane-1,1′-indene]-4-carboxylic acid], for which, in assay [1] (Homo sapiens, NCI-H929, 48 h), the IC50 turned out to be 2560 nM. The Ki in assay [2] worked out at 39.3 nM.
On the same counts, the results for `CO[C@@H]1CCCc2nccc(OC[C@H](C)C[C@H]3Cc4ccccc4[C@]34CC[C@@](Nc3cccc(Cl)c3)(C(=O)O)CC4)c21` [Example 672, (1r,2′S,4S)-4-(3-chloroanilino)-2′-[(2R)-3-{[(5R)-5-methoxy-5,6,7,8-tetrahydroquinolin-4-yl]oxy}-2-methylpropyl]-2′,3′-dihydrospiro[cyclohexane-1,1′-indene]-4-carboxylic acid] are 391 nM and 2.44 nM.
For `C[C@@H](COc1ccnc2c1[C@H](C)CC[C@H]2O)C[C@H]1Cc2ccccc2[C@]12CC[C@@](Nc1cccc(Cl)c1)(C(=O)O)CC2` [Example 673, (1r,2′S,4S)-4-(3-chloroanilino)-2′-[(2R)-3-{[(5R,8S)-8-hydroxy-5-methyl-5,6,7,8-tetrahydroquinolin-4-yl]oxy}-2-methylpropyl]-2′,3′-dihydrospiro[cyclohexane-1,1′-indene]-4-carboxylic acid], the IC50 in assay [1] came to 208 nM. Further, the inhibition constant (Ki) in assay [2] was found to be 0.647 nM.
In the case of `C[C@@H](COc1ccnc2c1[C@@H](C)CC[C@H]2O)C[C@H]1Cc2ccccc2[C@]12CC[C@@](Nc1cccc(Cl)c1)(C(=O)O)CC2` [Example 674, (1r,2′S,4S)-4-(3-chloroanilino)-2′-[(2R)-3-{[(5S,8R)-8-hydroxy-5-methyl-5,6,7,8-tetrahydroquinolin-4-yl]oxy}-2-methylpropyl]-2′,3′-dihydrospiro[cyclohexane-1,1′-indene]-4-carboxylic acid], in assay [1] (Homo sapiens, NCI-H929, 48 h), the IC50 was found to be 1710 nM. The Ki in assay [2] amounted to 6.95 nM.
Take `C[C@@H](COc1ccnc2c1[C@@H](C)CC[C@@H]2O)C[C@H]1Cc2ccccc2[C@]12CC[C@@](Nc1cccc(Cl)c1)(C(=O)O)CC2` [Example 675, (1r,2′S,4S)-4-(3-chloroanilino)-2′-[(2R)-3-{[(5S,8S)-8-hydroxy-5-methyl-5,6,7,8-tetrahydroquinolin-4-yl]oxy}-2-methylpropyl]-2′,3′-dihydrospiro[cyclohexane-1,1′-indene]-4-carboxylic acid]: the IC50 in assay [1] (Homo sapiens, NCI-H929, 48 h) amounted to 6980 nM. Further, in assay [2], the inhibitory constant (Ki) is 29.9 nM.
On to `C[C@@H](COc1ccnc2c1[C@H](C)CC[C@H]2O)C[C@H]1Cc2ccccc2[C@]12CC[C@@](Nc1cccc(Cl)c1)(C(=O)O)CC2` [Example 676, (1r,2′S,4S)-4-(3-chloroanilino)-2′-[(2R)-3-{[(5R,8R)-8-hydroxy-5-methyl-5,6,7,8-tetrahydroquinolin-4-yl]oxy}-2-methylpropyl]-2′,3′-dihydrospiro[cyclohexane-1,1′-indene]-4-carboxylic acid], for which, in assay [1], the IC50 came out at 65.6 nM. The inhibition constant (Ki) in assay [2] is 0.418 nM.
Turning to `C[C@@H](COc1ccnc2c1[C@H](C)CC=C2)C[C@H]1Cc2ccccc2[C@]12CC[C@@](Nc1cccc(Cl)c1)(C(=O)O)CC2` [Example 677, (1r,2′S,4S)-4-(3-chloroanilino)-2′-[(2R)-2-methyl-3-{[(5R)-5-methyl-5,6-dihydroquinolin-4-yl]oxy}propyl]-2′,3′-dihydrospiro[cyclohexane-1,1′-indene]-4-carboxylic acid], in assay [1] (Homo sapiens, NCI-H929, 48 h), the IC50 was 245 nM. Besides, the Ki in assay [2] turned out to be 1.18 nM.
Taken in the same sequence, the figures for `CC[C@H]1CC[C@H](O)c2nccc(OC[C@H](C)C[C@H]3Cc4ccccc4[C@]34CC[C@@](Nc3cccc(Cl)c3)(C(=O)O)CC4)c21` [Example 678, (1r,2′S,4S)-4-(3-chloroanilino)-2′-[(2R)-3-{[(5S,8S)-5-ethyl-8-hydroxy-5,6,7,8-tetrahydroquinolin-4-yl]oxy}-2-methylpropyl]-2′,3′-dihydrospiro[cyclohexane-1,1′-indene]-4-carboxylic acid] were 9630 nM and 221 nM.
